Results from patent US20240309014A1, “MACROCYCLIC COMPOUNDS AND USES THEREOF” (President and Fellows of Harvard College, priority 2017, published 2024).

What was measured:
[1] = system: COLO-704 subcutaneous xenograft; assay: COLO-704 xenograft model as monotherapy (FIG. 12); assay type: in vivo, nude mice
Description: A human ovarian cancer cell line COLO-704, which had been cultured in a RPMI-1640 containing 10% FBS, and penicillin-streptomycin, was adjusted to a concentration of 1×10^8 cells/mL with Hanks' Balanced Salt Solution to prepare a cell suspension. The cell suspension was inoculated in a volume of 100 μL into a subcutaneous part of a right flank of nude mice, 5 weeks of ages (CAnN.Cg- Foxnlnu/CrlCrlj, female, Charles River Laboratories Japan Inc.). Nine days after cell inoculation (Day 1), the shortest diameter and the longest diameter of a tumor in each mouse were measured by using an electronic digital caliper (Digimatic™ caliper, Mitutoyo Corporation), so as to calculate the volume of the tumor in accordance with the following calculation formulae: […]
(§1) On the basis of the volumes of tumors obtained on Day 1, the mice were grouped such that averages of the tumor volumes were substantially equal among the groups. The experiment was conducted on groups each consisting of six mice. The test compound was dissolved in DMSO and a solution was stored in the freezer before use. Immediately before the administration, the stock solution was diluted with saline. The test compound in saline was intravenously once-weekly administered at 20 μg/kg, 60 μg/kg, or 180 μg/kg for 2 weeks (on Day 1 and Day 8).

[2] = system: human synovial sarcoma cell line HS-SY-II xenograft; assay: HS-SY-II xenograft model as monotherapy (FIG. 22); assay type: in vivo, nude mice
Description: A human synovial sarcoma cell line HS-SY-II, which had been cultured in a DMEM containing 10% FBS, and penicillin-streptomycin, was adjusted to a concentration of 1×10^8 cells/mL with 50% Geltrex (Thermo Fisher Scientific) in Hanks' Balanced Salt Solution to prepare a cell suspension. The cell suspension was inoculated in a volume of 100 μL into a subcutaneous part of a right flank of nude mice, 5 weeks of ages (CAnN.Cg-Foxnlnu/CrlCrlj, female, Charles River Laboratories Japan Inc.). Thirty days after cell inoculation (Day 1), the shortest diameter and the longest diameter of a tumor in each mouse were measured by using an electronic digital caliper (Digimatic™ caliper, Mitutoyo Corporation), so as to calculate the volume of the tumor in accordance with the following calculation formulae: […]
as §1, with “mice. Compound (1)” for “mice. The test compound”, “at 90 μg/kg” for “at 20 μg/kg, 60 μg/kg,”

[3] = system: human uterine sarcoma cell line MES-SA xenograft; assay: MES-SA soft tissue sarcoma xenograft as monotherapy (FIG. 17); assay type: in vivo, nude mice; details: 180 μg/kg i.v. Day 1 and Day 8
Description: A human uterine sarcoma cell line MES-SA, which had been cultured in an RPMI-1640 containing 10% FBS, and penicillin-streptomycin, was adjusted to a concentration of 2×10^8 cells/mL with Hanks' Balanced Salt Solution to prepare a cell suspension, and the suspension was mixed with Geltrex® (Thermo Fisher Scientific Inc., #A1413202) in a ratio of 1:1 to prepare a cell suspension in a concentration of 1×10^8 cells/mL. The cell suspension was inoculated in a volume of 100 μL into a subcutaneous part of a right flank of nude mice, 6 weeks of ages (CAnN.Cg-Foxnlnu/CrlCrlj, female, Charles River Laboratories Japan Inc.). Six days after cell inoculation (Day 1), the shortest diameter and the longest diameter of a tumor in each mouse were measured by using an electronic digital caliper (Digimatic™ caliper, Mitutoyo Corporation), so as to calculate the volume of the tumor in accordance with the following calculation formulae: […]
as §1, with “6” for “six”, “The test compound in saline was intravenously once-weekly administered at 20 μg/kg, 60 μg/kg, or 180 μg/kg for 2 weeks (on Day 1 and Day 8).” left out

[4] = system: human bladder carcinoma cell line RT112/84; assay: Bladder carcinoma cell line growth inhibition assay, RT112/84; assay type: cell-based; details: RT112/84, 72 h, 3 days incubation, CellTiter-Glo 2.0
Description: In this assay, the growth inhibitory activity of Compound (1) in human bladder carcinoma cell lines RT4, RT112/84, and UM-UC-3 was measured. RT4 and RT112/84 cells were maintained in a RPMI-1640 (FUJIFILM Wako Pure Chemical Corporation, 189-02025) medium containing 10% fetal bovine serum (FBS: SIGMA Life Science, 172012-500ML), and penicillin and streptomycin (FUJIFILM Wako Pure Chemical Corporation, 168-23191) in a 5% CO2 incubator (37° C.). UM-UC-3 cells were maintained in an E-MEM (FUJIFILM Wako Pure Chemical Corporation, 051-07615) medium containing 10% FBS, 1 mM Sodium Pyruvate (FUJIFILM Wako Pure Chemical Corporation, 190-14881), and penicillin and streptomycin in a 5% CO2 incubator (37° C.). To each well of a 96 well plate (Coming, 3904), 90 μL of each cell suspension adjusted to a concentration of 5.55×10^3 cells/mL (RT4 or UM-UC-3) or 3.33×10^4 cells/mL (RT112/84) with the culture medium was added, and the cells were incubated overnight in a 5% CO2 incubator (37° C.). On the next day, 10 μL of Compound (1) in three-fold dilution series suspended in the culture medium was added to each well, and the resultant was incubated for 3 days in a 5% CO2incubator (37° C.). Then, cell viability was determined by CellTiter-Glo® 2.0 Assay (Promega Corporation, G9243) with ARVO-X4 Multimode Plate Reader (Perkin-Elmer, Wellesley, MA). […]

## C=C1C[C@@H]2CC[C@@]34C[C@H]5O[C@H]6[C@@H](O3)[C@H]3O[C@H](CC[C@@H]3O[C@H]6C5O4)CC(=O)O[C@@H]3[C@@H](C)[C@@H]4O[C@@H]5C[C@]6(C[C@@H]7O[C@]8(C[C@H](C)[C@@H]9O[C@H](CN)[C@H](O)C[C@@H]9O8)C[C@H](C)[C@@H]7O6)O[C@@H]5C[C@@H]4O[C@H]3C[C@H]3O[C@@H](CC[C@@H]1O2)C[C@@H](C)C3=C (stereo in doubt) [Compound (1)]
[1]; 60 μg/kg i.v. Day 1 and Day 8
  antitumor effect: tumor growth delay
[1]; 180 μg/kg i.v. Day 1 and Day 8
  antitumor effect: tumor regression
  xenograft tumors on Day 22: completely eradicated the xenograft tumors in all mice
[2]; 90 μg/kg i.v. Day 1 and Day 8
  antitumor effect: tumor growth delay
[2]; 180 μg/kg i.v. Day 1 and Day 8
  antitumor effect: tumor regression
[3]
  antitumor activity: tumor growth delay
[4]
  IC50: 0.0497 nM
